Reference: patent US8492417B2, “Topical use of thiazolidine derivatives against consequences of oxidative stress of skin” (Exsymol S.A.M., priority 2007, dated 2013)
Where two headings read alike, the source gives them in different places.

Key:
[1] = Scavenging speed constant of the hydroxyl radical, Ks (OH°); parameters: unit not given here; details: pH 7,4, 37° C., one hour incubation; middle values of five experiments
Protocol: The method, described by Rehman A. and coll.
Experimentally, the tested substance is dissolved in a buffered medium of pH 7,4 to which is added a generating medium of OH^o. Following one hour of incubation at 37° C., the reaction is stopped with the help of trichloroacetic acid. […]

[2] = "Global" antioxidant power: desoxyribose protection with oxidase/hypoxanthine xanthine pair; details: pH 7.5
Protocol: The production system of ROS, described by Nowak D. and coll. […] This is characterized by the sum of the effects against the superoxide anion O2^o−, hydrogen peroxide H2O2, and the hydroxyl radical OH^o, and is expressed by following the percentage of protection of a “detecting” molecule, desoxyribose.
Experimentally, the tested substance is dissolved in a buffered medium at pH 7.5, supplemented with NaCl, MgCl2 et CaCl2. After their incubation at 37° C. in the presence of the oxidase/hypoxanthine xanthine pair, EDTA and desoxyribose, the reaction is stopped with the help of trichloroacetic acid. After addition of thiobarbituric acid, an optic density measure at 532 nm is carried out, expressed later as percentage of desoxyribose protection (following comparison with a control).

V79 fibroblastic line [3] = assay: Neutralization of 4-hydroxynonenal cytotoxicity, MTT cellular viability; assay type: cell-based, hamster; details: 4-HNE 6 ppm
Protocol: The experimental study has been carried out on a fibroblastic line of hamster called V79, maintained in humid atmosphere at 37° C. and 5% CO2, then seeded in 96 wells plates at the rate of 0.5.10^4 cells per well.
The cellular viability of fibroblasts is measured by the incorporation method to the bromide of 3-(4,5-dimethylthiazol-2-yl)-2,5-diphenyltetrazolium (or MTT). The results, taking the middle values obtained from three independent experiments, are presented below in table 3, in comparison with those for the N-acetyl-cysteine at 2 mM chosen as a positive reference molecule (total restoration of cellular viability in relation to a control and the non stressed cells with 4-HNE).

V79 fibroblastic line [4] = assay: Anti-clastogen effect: micronucleus cells under genotoxic 4-HNE stress; assay type: cell-based, hamster; details: stress-HNE 1 ppm
Source text: The study has been carried out according to identical experimental conditions (sowing) to those presented in the here-above test 3, with cell exposure to a state of “4-HNE stress ” at […] genotoxic concentration, as described (Eckel P. M., Molecular Aspects of Medicine (2003), vol. 24, pp. 161-165) as generating cellular DNA breaks and micronucleus formation (clastogen effect).
The micronucleus cell number is counted following reading of the slides with epifluorescence microscope, on 2000 cells and after marking with orange acridine (DNA colorant).
Results, taking the middle values obtained from two independent experiments, are presented below in table 4, in comparison with those for N-acetyl-cysteine at 2 mM chosen as a positive reference molecule (number of micronucleus cells close to the non-exposed control).

[5] = "in tubo" taurine formation in contact with H2O2 solution (HPLC); assay type: physicochemical; details: 4 equivalents H2O2, pH 7.4, 37° C.
V79 cells = assay: Protection against "UVA-induced" stress: intracellular ROS by CMDCF probe; assay type: cell-based, hamster; details: irradiated cells, UVA 5 J. cm−2
Protocol: The study has been carried out according to identical experimental conditions (sowing) to those presented in the here-above tests 3 and 4, but with an exposure of V79 cells to ultraviolet radiation (λ315-400 nm) with the moderate dose of 5 J. cm^−2 (“UVA-induced” stress).
The formation of intracellular ROS is measured with the permeant fluorescent probe “CMDCF” derived from fluorescein (10 μm, 15 minutes incubation).
The percentages of CMDCF cells said “positive” (cells with intracellular formation of ROS are presented below in table 6, in comparison with unirradiated cells, then with cells treated with N-acetyl-cysteine (reference molecule) and different concentrations of 2-oxo-1,3-thiazolidine compound.

[6] = literature value (Cabelli 1983); cited from earlier work

With `O=C1NCCS1` [2-oxo-1,3-thiazolidine] the “Ks (OH°)” value [1] was 13.52, the “% protection” value ([2]; compound 10 mM) was 19% and the “% protection” value ([2]; compound 20 mM) was 25%. The viability at 100 µM (V79 fibroblastic line [3]; compound 0.1 mM) was 40%, the viability at 1000 µM (V79 fibroblastic line [3]; compound 1 mM) was 58% and the viability at 2500 µM (V79 fibroblastic line [3]; compound 2.5 mM) was 100%. For the same compound, the “Cell number with micronucleus/2000 cells” value (V79 fibroblastic line [4]; compound 5 mM) was 21, the “taurine (% formation)” value ([5]; 3 h) was 38% and the “taurine (% formation)” value ([5]; 7 h) was 56%. The “taurine (% formation)” value ([5]; 24 h) was 82%, the “taurine (% formation)” value ([5]; 48 h) was 93% and the “% of CMDCF positive cells” value (V79 cells; compound 0.625 mM) was 24.7%. The “% of CMDCF positive cells” value (V79 cells; compound 1.25 mM) was 15.3%, the “% of CMDCF positive cells” value (V79 cells; compound 2.5 mM) was 12% and the “% of CMDCF positive cells” value (V79 cells; compound 5 mM) was 7.3%. It also gave a logP (physchem) of -0.27.

In the case of `S=C1NCCS1` [2-thiono-1,3-thiazolidine], the “taurine (% formation)” value ([5]; 3 h) is reported as 30%, the “taurine (% formation)” value ([5]; 7 h) is reported as 50% and the “taurine (% formation)” value ([5]; 24 h) is reported as 77%. For the same compound, the “taurine (% formation)” value ([5]; 48 h) was 89%.

For `CC(=O)N[C@@H](CS)C(=O)O` [N-acetyl-cysteine, reference compound], the viability at 2000 µM (V79 fibroblastic line [3]; compound 2 mM) was 126%, the “Cell number with micronucleus/2000 cells” value (V79 fibroblastic line [4]; compound 2 mM) was 27 and the “% of CMDCF positive cells” value (V79 cells; compound 5 mM) was 4%.

In the case of `O=C1O[C@H]([C@@H](O)CO)C(O)=C1O` [ascorbic acid], the “Ks (OH°)” value [6] is listed as 10.1 Gigas.M-1.s-1.
